Measured values reported in PubChem BioAssay (NCI).
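Following 48 hours of exposure in 96-well plates, responses at five concentrations were used to interpolate endpoints linearly. TGI: concentration producing complete growth inhibition.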

Legend:
Assay in all cases: NCI tumour cell line growth inhibition, 48 h
786-0 renal = test system: 786-0 renal
A498 renal = test system: A498 renal
A549 NSCLC = test system: A549 NSCLC
ACHN renal = test system: ACHN renal
CAKI-1 renal = test system: CAKI-1 renal
CCRF-CEM leukemia = test system: CCRF-CEM leukemia
COLO 205 colon = test system: COLO 205 colon
DLD-1 colon = test system: DLD-1 colon
DMS 114 small cell lung = test system: DMS 114 small cell lung
DMS 273 small cell lung = test system: DMS 273 small cell lung
EKVX NSCLC = test system: EKVX NSCLC
HCC-2998 colon = test system: HCC-2998 colon
HCT-116 colon = test system: HCT-116 colon
HCT-15 colon = test system: HCT-15 colon
HL-60(TB) leukemia = test system: HL-60(TB) leukemia
HOP-62 NSCLC = test system: HOP-62 NSCLC
HOP-92 NSCLC = test system: HOP-92 NSCLC
HT29 colon = test system: HT29 colon
IGROV1 ovarian = test system: IGROV1 ovarian
K-562 leukemia = test system: K-562 leukemia
KM12 colon = test system: KM12 colon
KM20L2 colon = test system: KM20L2 colon
LOX IMVI melanoma = test system: LOX IMVI melanoma
LXFL 529 NSCLC = test system: LXFL 529 NSCLC
M14 melanoma = test system: M14 melanoma
MALME-3M melanoma = test system: MALME-3M melanoma
MOLT-4 leukemia = test system: MOLT-4 leukemia
NCI-H226 lung = test system: NCI-H226 lung
NCI-H23 lung = test system: NCI-H23 lung
NCI-H460 lung = test system: NCI-H460 lung
NCI-H522 lung = test system: NCI-H522 lung
OVCAR-3 ovarian = test system: OVCAR-3 ovarian
OVCAR-4 ovarian = test system: OVCAR-4 ovarian
OVCAR-5 ovarian = test system: OVCAR-5 ovarian
OVCAR-8 ovarian = test system: OVCAR-8 ovarian
RPMI-8226 leukemia = test system: RPMI-8226 leukemia
RXF 393 renal = test system: RXF 393 renal
RXF-631 renal = test system: RXF-631 renal
SF-268 CNS = test system: SF-268 CNS
SF-539 CNS = test system: SF-539 CNS
SK-MEL-2 melanoma = test system: SK-MEL-2 melanoma
SK-MEL-28 melanoma = test system: SK-MEL-28 melanoma
SK-MEL-5 melanoma = test system: SK-MEL-5 melanoma
SK-OV-3 ovarian = test system: SK-OV-3 ovarian
SN12C renal = test system: SN12C renal
SNB-19 CNS = test system: SNB-19 CNS
SNB-75 CNS = test system: SNB-75 CNS
SNB-78 CNS = test system: SNB-78 CNS
SR leukemia = test system: SR leukemia
SW-620 colon = test system: SW-620 colon
TK-10 renal = test system: TK-10 renal
U251 CNS = test system: U251 CNS
UACC-257 melanoma = test system: UACC-257 melanoma
UO-31 renal = test system: UO-31 renal
XF 498 CNS = test system: XF 498 CNS

Measured: TGI

CC(=O)Nc1[nH]n(C)c(=O)c1-c1nnc(C)s1
> 100 µM: all assays above
